PubChem BioAssay AID2060905 (Molecular Pharmacology Branch, DTP, NCI, 2025)

Tested on: 282377-053-R-J1-PDC complex spheroid viability
Assay: Anticancer human tumor 282377-053-R-J1-PDC patient-derived colon adenocarcinoma cell line growth inhibition [RAS]
Details: for IC50: curve of first compound; for viability, T/C: stronger effect = lower value
Summary of the method: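 Tumour cells grown as complex spheroids with HUVEC endothelial cells and mesenchymal stem cells, treated with RAS pathway inhibitor combinations. Each agent spans half-log steps from near clinical Cmax, or 10 microM where Cmax is unknown.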

[1] = second compound 0.000949 µM, first compound 0.00316 µM
[2] = second compound 0.000949 µM, first compound 0.01 µM
[3] = second compound 0.000949 µM, first compound 0.0316 µM
[4] = second compound 0.000949 µM, first compound 0.1 µM
[5] = second compound 0.003 µM, first compound 0.00316 µM
[6] = second compound 0.003 µM, first compound 0.01 µM
[7] = second compound 0.003 µM, first compound 0.0316 µM
[8] = second compound 0.003 µM, first compound 0.1 µM
[9] = second compound 0.00949 µM, first compound 0.00316 µM
[10] = second compound 0.00949 µM, first compound 0.01 µM
[11] = second compound 0.00949 µM, first compound 0.0316 µM
[12] = second compound 0.00949 µM, first compound 0.1 µM
[13] = second compound 0.03 µM, first compound 0.00316 µM
[14] = second compound 0.03 µM, first compound 0.01 µM
[15] = second compound 0.03 µM, first compound 0.0316 µM
[16] = second compound 0.03 µM, first compound 0.1 µM
[17] = second compound 0.0949 µM, first compound 0.00316 µM
[18] = second compound 0.0949 µM, first compound 0.01 µM
[19] = second compound 0.0949 µM, first compound 0.0316 µM
[20] = second compound 0.0949 µM, first compound 0.1 µM
[21] = second compound 0.3 µM, first compound 0.00316 µM
[22] = second compound 0.3 µM, first compound 0.01 µM
[23] = second compound 0.3 µM, first compound 0.0316 µM
[24] = second compound 0.3 µM, first compound 0.1 µM
[25] = second compound 0.000949 µM, first compound 0.316 µM
[26] = second compound 0.000949 µM, first compound 1 µM
[27] = second compound 0.000949 µM, first compound 3.16 µM
[28] = second compound 0.000949 µM, first compound 10 µM
[29] = second compound 0.003 µM, first compound 0.316 µM
[30] = second compound 0.003 µM, first compound 1 µM
[31] = second compound 0.003 µM, first compound 3.16 µM
[32] = second compound 0.003 µM, first compound 10 µM
[33] = second compound 0.00949 µM, first compound 0.316 µM
[34] = second compound 0.00949 µM, first compound 1 µM
[35] = second compound 0.00949 µM, first compound 3.16 µM
[36] = second compound 0.00949 µM, first compound 10 µM
[37] = second compound 0.03 µM, first compound 0.316 µM
[38] = second compound 0.03 µM, first compound 1 µM
[39] = second compound 0.03 µM, first compound 3.16 µM
[40] = second compound 0.03 µM, first compound 10 µM
[41] = second compound 0.0949 µM, first compound 0.316 µM
[42] = second compound 0.0949 µM, first compound 1 µM
[43] = second compound 0.0949 µM, first compound 3.16 µM
[44] = second compound 0.0949 µM, first compound 10 µM
[45] = second compound 0.3 µM, first compound 0.316 µM
[46] = second compound 0.3 µM, first compound 1 µM
[47] = second compound 0.3 µM, first compound 3.16 µM
[48] = second compound 0.3 µM, first compound 10 µM
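Further: spheroids exposed to agents for seven days before readout.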
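Wherever viability, T/C is given: luminescence viability as percent of DMSO vehicle control wells.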

In the case of `CC(C)n1nc(-c2ccc3oc(N)nc3c2)c2c(N)ncnc21` + CCn1c(-c2cc(N3CCN(C)CC3)cnc2C(C)OC)c2c3cc(ccc31)-c1csc(n1)CC(NC(=O)C1CC1C)C(=O)N1CCCC(N1)C(=O)OCC(C)(C)C2, the IC50 (second compound 0.000949 µM) is reported as > 0.1 µM, the IC50 (second compound 0.003 µM) is reported as 0.0605 µM and the IC50 (second compound 0.00949 µM) is reported as 0.0962 µM. The IC50 (second compound 0.03 µM) was 0.0438 µM, the IC50 (second compound 0.0949 µM) was 0.0451 µM and the IC50 (second compound 0.3 µM) was > 0.1 µM. It also gave a viability, T/C (second compound 0.000949 µM, first compound 0.000316 µM) of 68.7%, a viability, T/C (second compound 0.000949 µM, first compound 0.001 µM) of 101% and a viability, T/C [1] of 86.2%. It also gave a viability, T/C [2] of 74.5%, a viability, T/C [3] of 64.3% and a viability, T/C [4] of 50.4%. The viability, T/C (second compound 0.003 µM, first compound 0.000316 µM) was 103%, the viability, T/C (second compound 0.003 µM, first compound 0.001 µM) was 102% and the viability, T/C [5] was 77.8%. It also gave a viability, T/C [6] of 72.1%, a viability, T/C [7] of 61.7% and a viability, T/C [8] of 42.1%. For the same molecule, the viability, T/C (second compound 0.00949 µM, first compound 0.000316 µM) was 96.1%, the viability, T/C (second compound 0.00949 µM, first compound 0.001 µM) was 102% and the viability, T/C [9] was 93.8%. It also gave a viability, T/C [10] of 73.4%, a viability, T/C [11] of 54.3% and a viability, T/C [12] of 49.5%. The viability, T/C (second compound 0.03 µM, first compound 0.000316 µM) was 104%, the viability, T/C (second compound 0.03 µM, first compound 0.001 µM) was 88% and the viability, T/C [13] was 88.9%. It also gave a viability, T/C [14] of 62.4%, a viability, T/C [15] of 54% and a viability, T/C [16] of 43.5%. The viability, T/C (second compound 0.0949 µM, first compound 0.000316 µM) was 100%, the viability, T/C (second compound 0.0949 µM, first compound 0.001 µM) was 84.9% and the viability, T/C [17] was 86.9%. The viability, T/C [18] was 60.7%, the viability, T/C [19] was 57.7% and the viability, T/C [20] was 39.5%. The viability, T/C (second compound 0.3 µM, first compound 0.000316 µM) was 90.3%, the viability, T/C (second compound 0.3 µM, first compound 0.001 µM) was 98.8% and the viability, T/C [21] was 78.3%. The viability, T/C [22] was 65.5%, the viability, T/C [23] was 58.9% and the viability, T/C [24] was 48.9%.
`CC1(O)CCCC1n1c(=O)c(C(F)F)cc2cnc(NC3CCN(S(C)(=O)=O)CC3)nc21` (stereo not drawn) + CCn1c(-c2cc(N3CCN(C)CC3)cnc2C(C)OC)c2c3cc(ccc31)-c1csc(n1)CC(NC(=O)C1CC1C)C(=O)N1CCCC(N1)C(=O)OCC(C)(C)C2 gave an IC50 (second compound 0.000949 µM) of 6.75 µM, an IC50 (second compound 0.003 µM) of 7.15 µM and an IC50 (second compound 0.00949 µM) of 7.03 µM. The IC50 (second compound 0.03 µM) was 6.98 µM, the IC50 (second compound 0.0949 µM) was 6.92 µM and the IC50 (second compound 0.3 µM) was 7.08 µM. The viability, T/C [3] was 101%, the viability, T/C [4] was 141% and the viability, T/C [25] was 112%. For the same molecule, the viability, T/C [26] was 155%, the viability, T/C [27] was 162% and the viability, T/C [28] was 6.35%. For the same molecule, the viability, T/C [7] was 116%, the viability, T/C [8] was 117% and the viability, T/C [29] was 151%. The viability, T/C [30] was 146%, the viability, T/C [31] was 204% and the viability, T/C [32] was 10.2%. For the same molecule, the viability, T/C [11] was 91.9%, the viability, T/C [12] was 115% and the viability, T/C [33] was 165%. It also gave a viability, T/C [34] of 153%, a viability, T/C [35] of 189% and a viability, T/C [36] of 9.24%. The viability, T/C [15] was 112%, the viability, T/C [16] was 104% and the viability, T/C [37] was 169%. For the same molecule, the viability, T/C [38] was 182%, the viability, T/C [39] was 167% and the viability, T/C [40] was 6.22%. For the same molecule, the viability, T/C [19] was 94.1%, the viability, T/C [20] was 141% and the viability, T/C [41] was 139%. It also gave a viability, T/C [42] of 141%, a viability, T/C [43] of 203% and a viability, T/C [44] of 5.83%. For the same molecule, the viability, T/C [23] was 106%, the viability, T/C [24] was 134% and the viability, T/C [45] was 152%. For the same molecule, the viability, T/C [46] was 190%, the viability, T/C [47] was 174% and the viability, T/C [48] was 6.62%.
`CCN1CCN(Cc2ccc(Nc3ncc(F)c(-c4cc(F)c5nc(C)n(C(C)C)c5c4)n3)nc2)CC1` + CCn1c(-c2cc(N3CCN(C)CC3)cnc2C(C)OC)c2c3cc(ccc31)-c1csc(n1)CC(NC(=O)C1CC1C)C(=O)N1CCCC(N1)C(=O)OCC(C)(C)C2 was tested, and the IC50 (second compound 0.000949 µM) was > 1 µM, the IC50 (second compound 0.003 µM) was > 1 µM and the IC50 (second compound 0.00949 µM) was > 1 µM. The IC50 (second compound 0.03 µM) was > 1 µM, the IC50 (second compound 0.0949 µM) was > 1 µM and the IC50 (second compound 0.3 µM) was > 1 µM. For the same molecule, the viability, T/C [1] was 101%, the viability, T/C [2] was 119% and the viability, T/C [3] was 98.1%. It also gave a viability, T/C [4] of 120%, a viability, T/C [25] of 188% and a viability, T/C [26] of 180%. For the same molecule, the viability, T/C [5] was 102%, the viability, T/C [6] was 137% and the viability, T/C [7] was 114%. The viability, T/C [8] was 90.1%, the viability, T/C [29] was 142% and the viability, T/C [30] was 170%. The viability, T/C [9] was 115%, the viability, T/C [10] was 126% and the viability, T/C [11] was 96.2%. For the same molecule, the viability, T/C [12] was 105%, the viability, T/C [33] was 108% and the viability, T/C [34] was 194%. For the same molecule, the viability, T/C [13] was 90.4%, the viability, T/C [14] was 106% and the viability, T/C [15] was 87.7%. The viability, T/C [16] was 105%, the viability, T/C [37] was 131% and the viability, T/C [38] was 212%. It also gave a viability, T/C [17] of 98.8%, a viability, T/C [18] of 112% and a viability, T/C [19] of 89.8%. It also gave a viability, T/C [20] of 123%, a viability, T/C [41] of 146% and a viability, T/C [42] of 246%. For the same molecule, the viability, T/C [21] was 102%, the viability, T/C [22] was 123% and the viability, T/C [23] was 123%. The viability, T/C [24] was 119%, the viability, T/C [45] was 162% and the viability, T/C [46] was 227%.
For `C[C@@H](NC(=O)c1ncnc(N)c1Cl)c1ncc(C(=O)Nc2cc(C(F)(F)F)c(Cl)cn2)s1` + CCn1c(-c2cc(N3CCN(C)CC3)cnc2C(C)OC)c2c3cc(ccc31)-c1csc(n1)CC(NC(=O)C1CC1C)C(=O)N1CCCC(N1)C(=O)OCC(C)(C)C2, the IC50 (second compound 0.000949 µM) was > 10 µM, the IC50 (second compound 0.003 µM) was > 10 µM and the IC50 (second compound 0.00949 µM) was > 10 µM. The IC50 (second compound 0.03 µM) was > 10 µM, the IC50 (second compound 0.0949 µM) was > 10 µM and the IC50 (second compound 0.3 µM) was > 10 µM. For the same molecule, the viability, T/C [3] was 82.7%, the viability, T/C [4] was 100% and the viability, T/C [25] was 80%. The viability, T/C [26] was 82.7%, the viability, T/C [27] was 75.6% and the viability, T/C [28] was 68.8%. The viability, T/C [7] was 89.8%, the viability, T/C [8] was 125% and the viability, T/C [29] was 81.8%. It also gave a viability, T/C [30] of 90.2%, a viability, T/C [31] of 70.6% and a viability, T/C [32] of 59.2%. It also gave a viability, T/C [11] of 110%, a viability, T/C [12] of 115% and a viability, T/C [33] of 85.8%. The viability, T/C [34] was 94%, the viability, T/C [35] was 68% and the viability, T/C [36] was 57.9%. The viability, T/C [15] was 97.2%, the viability, T/C [16] was 106% and the viability, T/C [37] was 89.4%. The viability, T/C [38] was 96%, the viability, T/C [39] was 63.2% and the viability, T/C [40] was 60.1%. It also gave a viability, T/C [19] of 110%, a viability, T/C [20] of 105% and a viability, T/C [41] of 77.1%. For the same molecule, the viability, T/C [42] was 94.2%, the viability, T/C [43] was 73.1% and the viability, T/C [44] was 74.2%. It also gave a viability, T/C [23] of 94.3%, a viability, T/C [24] of 103% and a viability, T/C [45] of 89.3%. It also gave a viability, T/C [46] of 108%, a viability, T/C [47] of 86.4% and a viability, T/C [48] of 61.2%.
